Laboratory results published in ChEMBL document CHEMBL4765299 (Eur J Med Chem, 2020).
The source made the active and inactive calls. The rule behind the calls is not given here.

Key:
Sus scrofa = species: Sus scrofa; assay: Displacement of [3H]colchicine from porcine brain tubulin at 1 uM incubated for 2 hrs by TopCount scintillation counting method relative to control; format: tissue-based
[1] = (§1) against A against n against t against i against p against r against o against l against i against f against e against r against a against t against i against v against e against a against c against t against i against v against i against t against y against a against g against a against i against n against s against t against h against u against m against a against n against H against C against T against - against 8 against c against e against l against l against s against a against s against s against e against s against s against e against d against a against s against r against e against d against u against c against t against i against o against n against i against n against c against e against l against l against v against i against a against b against i against l against i against t against y against m against e against a against s against u against r against e against d against a against f against t against e against r against 7 against 2 against h against r against s against b against y against M against T against T against a against s against s against a against y against; format: functional, tissue-based, Homo sapiens; settings: hct-8
HUVEC [2] = assay: Inhibition of cell migration in HUVEC assessed as wound closure at 20 nM after 24 hrs by scratch wound healing assay (reference value: 76.3%); format: functional, Homo sapiens; set-up: scale not given: the % may be the effect or the level left
K562 [3] = assay: Induction of apoptosis in human K562 cells assessed as late apoptotic cells at 20 nM incubated for 48 hrs by AnnexinV-FITC/propidium iodide staining based flow cytometry analysis (reference value: 1.78%); format: functional
K562 [4] = assay: Induction of mitochondrial membrane potential depolarization in human K562 cells assessed proportion of cells with collapsed MMP at 20 nM measured after 48 hrs by JC-1 staining based flow cytometry (reference value: 1.57%); format: functional
K562 [5] = assay: Induction of mitochondrial membrane potential depolarization in human K562 cells assessed proportion of cells with intact MMP at 5 nM measured after 48 hrs by JC-1 staining based flow cytometry (reference value: 98.12%); format: functional
K562 [6] = assay: Induction of cell cycle arrest in human K562 cells assessed as accumulation at G2/M phase at 20 nM incubated for 48 hrs by propidium iodide/RNase staining based flow cytometry (reference value: 7.7%); format: functional
HUVEC [7] = assay: Anti-angiogenesis activity in HUVEC assessed as inhibition of capillary-like tube formation at 10 nM incubated for 6 hrs by Matrigel-based optical microscopy; format: functional, cell-based; settings: Homo sapiens
K562 [8] = assay: Induction of apoptosis in human K562 cells incubated for 48 hrs by AnnexinV-FITC/propidium iodide staining based flow cytometry; format: functional, cell-based; settings: dose 5-20 nM
K562 [9] = assay: Induction of cell cycle arrest in human K562 cells assessed as accumulation at S phase at 20 nM incubated for 48 hrs by propidium iodide/RNase staining based flow cytometry (reference value: 53.48%); format: functional
[10] = Toxicity in ICR mouse allografted with mouse H22 cells assessed as heart morphological changes at 30 mg/kg, iv administered daily for 21 days by hematoxylin and eosin staining based microscopic analysis; format: organism-based; settings: in vivo, 504 h, dose 30 mg/kg/day, time 21 day
HUVEC [11] = assay: Inhibition of cell migration in HUVEC assessed as decrease in wound closure after 24 hrs by scratch wound healing assay; format: functional, cell-based; settings: Homo sapiens, dose 5-20 nM
K562 [12] = assay: Induction of cell cycle arrest in human K562 cells assessed as accumulation at G2/M phase at 10 nM incubated for 48 hrs by propidium iodide/RNase staining based flow cytometry (reference value: 7.7%); format: functional
K562 [13] = assay: Induction of apoptosis in human K562 cells assessed as late apoptotic cells at 5 nM incubated for 48 hrs by AnnexinV-FITC/propidium iodide staining based flow cytometry analysis (reference value: 1.78%); format: functional
K562 [14] = assay: Induction of cell cycle arrest in human K562 cells assessed as accumulation at G1 phase at 5 nM incubated for 48 hrs by propidium iodide/RNase staining based flow cytometry (reference value: 38.83%); format: functional
HUVEC [15] = assay: Anti-angiogenesis activity in HUVEC assessed as inhibition of capillary-like tube formation at 20 nM incubated for 6 hrs by Matrigel-based optical microscopy; format: functional, cell-based; settings: Homo sapiens
HUVEC [16] = assay: Anti-angiogenesis activity in HUVEC assessed as inhibition of capillary-like tube formation at 5 nM incubated for 6 hrs by Matrigel-based optical microscopy; format: functional, cell-based; settings: Homo sapiens
K562 [17] = assay: Induction of mitochondrial membrane potential depolarization in human K562 cells assessed proportion of cells with intact MMP at 10 nM measured after 48 hrs by JC-1 staining based flow cytometry (reference value: 98.12%); format: functional
[18] = against C against y against t against o against t against o against x against i against c against i against t against y against a against g against a against i against n against s against t against h against u against m against a against n against H against F against L against - against 1 against c against e against l against l against s against a against s against s against e against s against s against e against d against a against s against r against e against d against u against c against t against i against o against n against i against n against c against e against l against l against v against i against a against b against i against l against i against t against y against m against e against a against s against u against r against e against d against a against f against t against e against r against 7 against 2 against h against r against s against b against y against M against T against T against a against s against s against a against y against; format: ADME, tissue-based; settings: Homo sapiens, HFL1
[19] = Toxicity in ICR mouse allografted with mouse H22 cells assessed as liver morphological changes at 30 mg/kg, iv administered daily for 21 days by hematoxylin and eosin staining based microscopic analysis; format: organism-based; settings: in vivo, 504 h, dose 30 mg/kg/day, time 21 day
HUVEC [20] = assay: Inhibition of cell migration in HUVEC assessed as wound closure at 5 nM after 24 hrs by scratch wound healing assay (reference value: 76.3%); format: functional, Homo sapiens; set-up: scale not given: the % may be the effect or the level left
K562 [21] = assay: Induction of mitochondrial membrane potential depolarization in human K562 cells assessed proportion of cells with collapsed MMP at 5 nM measured after 48 hrs by JC-1 staining based flow cytometry (reference value: 1.57%); format: functional
K562 [22] = assay: Induction of cell cycle arrest in human K562 cells assessed as accumulation at S phase at 10 nM incubated for 48 hrs by propidium iodide/RNase staining based flow cytometry (reference value: 53.48%); format: functional
H22 = assay: Antiproliferative activity against mouse H22 cells assessed as inhibition of cell growth by MTT assay; format: functional, cell-based
K562 [23] = assay: Induction of cell cycle arrest in human K562 cells assessed as increase in accumulation at G2/M phase incubated for 48 hrs by propidium iodide/RNase staining based flow cytometry; format: functional; settings: dose 5-20 nM
K562 [24] = assay: Induction of mitochondrial membrane potential depolarization in human K562 cells measured after 48 hrs by JC-1 staining based flow cytometry; format: functional, cell-based; settings: dose 5-20 nM
[25] = Inhibition of porcine brain tubulin polymerization assessed as inhibition of microtubule assembly by measuring decrease in absorbance measured for 60 mins by fluorescence based analysis; format: tissue-based, Sus scrofa
HUVEC [26] = assay: Inhibition of cell migration in HUVEC assessed as wound closure at 10 nM after 24 hrs by scratch wound healing assay (reference value: 76.3%); format: functional, Homo sapiens; set-up: scale not given: the % may be the effect or the level left
[27] = Toxicity in ICR mouse allografted with mouse H22 cells assessed as lung morphological changes at 30 mg/kg, iv administered daily for 21 days by hematoxylin and eosin staining based microscopic analysis; format: organism-based; settings: in vivo, 504 h, dose 30 mg/kg/day, time 21 day
[28] = as §1, with “n against K against 5” for “n against H against C”, “K against 5 against 6” for “H against C against T”, “5 against 6 against 2” for “C against T against -”, “6 against 2 against c” for “T against - against 8 against c”; format: functional, tissue-based, Homo sapiens; settings: k562
[29] = Toxicity in ICR mouse allografted with mouse H22 cells assessed as kidney morphological changes at 30 mg/kg, iv administered daily for 21 days by hematoxylin and eosin staining based microscopic analysis; format: organism-based; settings: in vivo, 504 h, dose 30 mg/kg/day, time 21 day

inhibition (Sus scrofa): 66.5%
IC50 [1]: 0.021 µM
IC50 [18]: 0.118 µM
IC50 [25]: 3.15 µM
IC50 [28]: 0.01 µM
Compound: C=C(c1cc(Cl)nc(NC)c1)c1ccc(OC)c(O)c1
Activity (HUVEC [2]): 49.2%
Activity (K562 [3]): 18.43%
Activity (K562 [4]): 38.84%
Activity (K562 [5]): 86.4%
Activity (K562 [6]): 15.28%
Activity (HUVEC [7]): Active
Activity (K562 [8]): Dose-dependent effect
Activity (K562 [9]): 48.07%
Activity [10]: Non-Toxic
inhibition (HUVEC [11]): Dose-dependent effect
Activity (K562 [12]): 11.54%
Activity (K562 [13]): 3.86%
Activity (K562 [14]): 39.94%
Activity (HUVEC [15]): Active
Activity (HUVEC [16]): Active
Activity (K562 [17]): 79.83%
Activity [19]: Non-Toxic
Activity (HUVEC [20]): 67.6%
Activity (K562 [21]): 13.44%
Activity (K562 [22]): 50.01%
IC50 (H22): 0.017 µM
Activity (K562 [23]): Dose-dependent effect
Activity (K562 [24]): Dose-dependent effect
Activity (HUVEC [26]): 55.3%
Activity [27]: Non-Toxic
Activity [29]: Non-Toxic
